Values joined by “and” are separate entries in the source; they are usually repeats but may differ in a detail not shown here. Equal values may be shown once. Read-outs that look alike come from different tables or passages of the source.

For data set [1], the target named is T1, E. coli flavohemoglobin (NOD) (Escherichia coli, UniProt P24232).
Text: (§1) The specific activities of the E. coli, A. eutrophus and S. cerevisiae NOD were 185, 90 and 105 NO heme^−1 s^−1, respectively.
The subject of data set [2] is Caco-2 cells. Put plainly: NO consumption (NO metabolism) by Caco-2 cells. The following applies: for % Activity, Caco-2: agent 100 μM, 15 min incubation, 100% = 25.4±1.4 nmol NO per minute per 107 cells.
Experimental: (§2) Initial rates of NO consumption were measured at 1 μM NO unless otherwise stated, and all rates were corrected for background rates of NO decomposition. A milliunit of activity is defined as the amount metabolizing 1 nanomol NO per min. […] Rotenone (0.5 μM) was included in CO inhibition assays to block respiration and O2 depletion. […] Cell permeabilization was monitored by the loss of NO metabolic activity.
(§3) Error bars represent the SD of three independent trials.
(§4) In addition to cyanide and CO, heme-binding imidazoles, a panel of substrate-inhibitors of cytochrome P450s, inhibitors of the NO-binding heme oxygenases, and free radical scavengers were surveyed for effects on NO metabolism by Caco-2 and A549 cells. All agents were used at concentrations showing minimal cytotoxicity as defined by <5% decrease in trypan blue exclusion following 15 min exposure (data not shown). Caco-2 and A549 cells were grown, harvested and assayed for NO consumption activity following a 15 min incubation in 2 ml DPBS containing 5 mM glucose and 100 μg/ml cycloheximide with the indicated agent as previously described. Data represent the mean ±SD of three independent exposures.
The subject of data set [3] is microsomal NO metabolism (Caco-2 microsomes). The settings on record: for IC50: read-out: IC50, microsomal NO metabolism. The procedure: NO metabolism by cell fractions was assayed in 100 mM Na-Hepes, pH 7.8, 0.25 M sucrose, 1 mM EDTA and 1 mM EGTA (Sucrose Buffer) containing 15 μM Cu,ZnSOD and 100 μM NADPH. Cell fractions were added with a 50 μl Hamilton syringe to give a total of 100-750 μg protein. For determination of O2 dependence of microsomal NO metabolism, the 2 ml reaction was sparged with N2 for 10 minutes to remove O2, and O2 was depleted from microsomal membranes by stirring membranes under a stream of N2 in a rubber septum-sealed tube on ice. Alternatively, residual O2 was removed by incubating the reaction mix with 16 units glucose oxidase, 1 mM glucose and 260 units catalase for 5 minutes prior to adding NO and microsomes. O2 was added from O2 saturated buffer to achieve various O2 concentrations.
Data represent the average of two or more two independent trials.
NO consumption by Caco-2 microsomes was assayed as previously described.

In another data set the target is flavohemoglobins. Description: CO binding to ferrous hemes of flavohemoglobins. The settings on record: read-out: dissociation equilibrium constants, ferrous hemes of flavohemoglobins.
A further data set has as its target flavohemoglobins (NOD). Description: CO inhibition of flavohemoglobin NOD activities. The settings on record: read-out: Ki, competitive inhibition of NOD activities with respect to O2. The data set is classed as biochemical.
The next data set has as its system A549 cells. Put plainly: NO consumption (NO metabolism) by A549 cells. The data set is classed as cell-based, human. The settings on record: for Inhibition of NO metabolic activity, A549: porphyrin 100 μM; for activity at 20 µM: agent 20 μM. From the text: . The results are show in Table II.
In data set [4] the target is T2, NADPH-cytochrome P450 oxidoreductase (CYPOR) (Homo sapiens, UniProt P16435).
T2 sequence (P16435 1-677): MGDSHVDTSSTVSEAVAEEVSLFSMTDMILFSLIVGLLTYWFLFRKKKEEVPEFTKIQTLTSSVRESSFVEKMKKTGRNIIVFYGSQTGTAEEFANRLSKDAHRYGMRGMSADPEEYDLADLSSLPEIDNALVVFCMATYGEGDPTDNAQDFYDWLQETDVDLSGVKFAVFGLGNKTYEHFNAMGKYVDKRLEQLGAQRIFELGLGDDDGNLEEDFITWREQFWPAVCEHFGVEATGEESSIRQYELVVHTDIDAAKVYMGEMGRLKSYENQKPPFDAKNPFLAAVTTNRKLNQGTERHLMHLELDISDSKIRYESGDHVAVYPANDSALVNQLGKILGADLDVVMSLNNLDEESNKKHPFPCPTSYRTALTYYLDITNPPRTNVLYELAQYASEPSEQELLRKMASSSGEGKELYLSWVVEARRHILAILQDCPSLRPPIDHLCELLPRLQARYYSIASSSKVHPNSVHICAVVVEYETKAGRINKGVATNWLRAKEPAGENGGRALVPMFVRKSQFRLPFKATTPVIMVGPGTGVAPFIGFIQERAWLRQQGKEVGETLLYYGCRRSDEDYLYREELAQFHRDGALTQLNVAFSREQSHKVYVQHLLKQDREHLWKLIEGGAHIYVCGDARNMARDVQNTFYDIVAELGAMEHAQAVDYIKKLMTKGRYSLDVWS
Put plainly: CYPOR (cytochrome c reductase) activity. The procedure: The incubations contained 120 μl of Sucrose Buffer and 30 μl of PBS (8.1 mM Na2HPO4, 1.1 mM KH2PO4, 138 mM NaCl and 2.7 mM KCl, pH 7.4) introduced with IgG or BSA.

Data set [5] has as its target T3, A. eutrophus flavohemoglobin (Cupriavidus necator, UniProt P39662).
Text: as §1
Data set [6] deals with S. cerevisiae flavohemoglobin (Saccharomyces cerevisiae, UniProt P39676). Put plainly: biochemical.
Sequence of S. cerevisiae flavohemoglobin (P39676 whole entry): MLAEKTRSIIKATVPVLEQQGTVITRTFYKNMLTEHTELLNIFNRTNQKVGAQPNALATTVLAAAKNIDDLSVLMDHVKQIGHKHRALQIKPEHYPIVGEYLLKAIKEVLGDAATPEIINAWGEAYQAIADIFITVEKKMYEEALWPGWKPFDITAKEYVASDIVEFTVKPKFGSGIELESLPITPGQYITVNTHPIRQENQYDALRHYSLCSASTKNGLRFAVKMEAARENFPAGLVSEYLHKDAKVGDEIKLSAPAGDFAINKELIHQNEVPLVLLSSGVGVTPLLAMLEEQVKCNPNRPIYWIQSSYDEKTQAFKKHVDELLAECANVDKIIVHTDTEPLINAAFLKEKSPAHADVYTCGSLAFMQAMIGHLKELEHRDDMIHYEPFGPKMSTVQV
Text: as §1
Data set [7] concerns the target T1, E. coli flavohemoglobin (NOD). Put plainly: biochemical.
Text: as §1
For data set [8], the system named is Caco-2 cells.
Experimental: as §2, §3, §4
Data set [9] concerns the target T3, A. eutrophus flavohemoglobin. Put plainly: biochemical. The following applies: Apparent Ki.
Text: as §1
In the next data set the test system is S. cerevisiae. Description: NO consumption (NOD) activity within S. cerevisiae. In kind it is cell-based, Saccharomyces cerevisiae. The settings on record: 0 μM to about 20 μM miconazole. From the text: Error bars represent the standard deviation of the average of three independent trials.
Data set [10] concerns S. cerevisiae parental strain BY4742. Description: Growth of S. cerevisiae under NO atmosphere. The data set is classed as cell-based, Saccharomyces cerevisiae. The following applies: 5 μM miconazole, 960 ppm NO, 21% O2.
Experimental: At the time indicated by the arrow, cultures were exposed to an atmosphere containing 960 ppm NO (<2 μM NO in solution) in a 21% O2/N2 balance (lines 2 and 4) or were maintained under an atmosphere of 21% O2 balanced with N2 (lines 1 and 3).
At the time indicated by the arrow, cultures were either maintained fewer than 21% O2 balanced with N2 (lines 1 and 3) or were exposed to 960 ppm NO in the 21% O2/N2-balanced atmosphere (lines 2 and 4). Cultures were grown and exposed to gases.
The target of the next data set is heme oxygenase. The settings on record: cited from earlier work.
Setting [11] is: Homo sapiens, A549, 0.25 h, 15 min incubation.

T3 sequence (P39662 whole entry): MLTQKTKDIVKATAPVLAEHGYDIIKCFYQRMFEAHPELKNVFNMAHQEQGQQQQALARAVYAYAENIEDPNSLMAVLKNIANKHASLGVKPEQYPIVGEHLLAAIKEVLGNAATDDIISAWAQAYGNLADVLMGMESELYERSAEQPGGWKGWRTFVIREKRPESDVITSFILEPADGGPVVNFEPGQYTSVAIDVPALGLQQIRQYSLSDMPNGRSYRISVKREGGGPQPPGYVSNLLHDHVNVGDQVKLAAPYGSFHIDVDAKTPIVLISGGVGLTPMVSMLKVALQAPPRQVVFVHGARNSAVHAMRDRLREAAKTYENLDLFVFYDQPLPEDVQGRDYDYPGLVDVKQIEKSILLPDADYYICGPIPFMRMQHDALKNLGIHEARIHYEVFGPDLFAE
T1 sequence (P24232 whole entry): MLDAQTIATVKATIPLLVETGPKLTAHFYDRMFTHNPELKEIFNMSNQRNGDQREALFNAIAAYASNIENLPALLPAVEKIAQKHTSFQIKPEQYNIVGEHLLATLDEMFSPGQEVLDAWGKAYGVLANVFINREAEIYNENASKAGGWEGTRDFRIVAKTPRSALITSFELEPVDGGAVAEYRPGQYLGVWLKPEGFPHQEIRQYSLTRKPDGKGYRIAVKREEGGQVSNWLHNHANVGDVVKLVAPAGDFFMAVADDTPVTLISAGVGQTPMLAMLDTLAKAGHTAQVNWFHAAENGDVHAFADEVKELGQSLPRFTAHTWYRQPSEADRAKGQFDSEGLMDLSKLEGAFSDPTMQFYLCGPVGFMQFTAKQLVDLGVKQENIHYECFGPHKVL

As to `C=CCS[S+]([O-])CC=C` (stereo not drawn) [Allicin, diallyl thiosulfinate], the “Effect on isolated E. coli NOD” value in data set [1] was “inactivates the isolated E. coli NOD”.

As to `[C-]#[O+]` [CO, carbon monoxide], the “Inhibition of NO metabolism by CO, cells” value in the data set with Caco-2 cells [2] (CO:O2 ratio 0.4) is on record as “about 75%”. For the same molecule, the Ki in the data set with Caco-2 cells [2] (read-out: Ki(CO), competitive inhibition of cellular NO metabolism, 5 μM CO, 12.5 μM O2, competitive with O2) was ~3 µM and 3 µM; on flavohemoglobins (NOD), ~1 µM. In data set [3] (10 μM CO, 20 μM O2, 1 μM NO), the “Inhibition of microsomal NO consumption” value is > 50%. Further, the “Inhibition of NO metabolism by CO, microsomes” value in data set [3] (CO:O2 ratio 0.75) was “about 75%”. Further, on flavohemoglobins, the Kd was < 0.7 µM.

In the case of `c1ccc2c(c1)[I+]c1ccccc1-2` [DPI, Diphenyleneiodonium], in data set [3], the “Loss of microsomal NO metabolic activity” value is given as “Seventy-five percent”.

On to `COC(=O)[C@@H](N)CCCNC(=N)N[N+](=O)[O-]` [L-NAME, N ω-nitro-L-arginine methyl ester], for which, in the data set on A549 cells (Homo sapiens, A549, 0.25 h, agent 1 mM, 15 min incubation), the activity at 1000 µM stood at 101 ± 2.9%. In addition, the “% Activity, microsomal NO metabolism” value in [3] (inhibitor 1 mM) is 96.7 ± 6.0%.

Take `C=CC1=C(C)c2cc3[n-]c(cc4[n-]c(cc5nc(cc1n2)C(C)=C5C=C)c(C)c4CCC(=O)O)c(CCC(=O)O)c3C.[Zn+2]` [Zn2+-protoporphyrin, Zn(II)-protoporphyrin IX]: in data set [4], the “Effect on cytochrome c reduction by microsomal membranes and purified CYPOR” value is given as “progressive inhibition of cytochrome c reduction”. In the data set on A549 cells, the “Inhibition of NO metabolic activity, A549” value was “about 40%”. Further, in [3], the “Effect of porphyrins on microsomal NO metabolism” value was “inhibited microsomal NO metabolism”.

Consider `C=CCSCC=C` [diallyl sulfide], for which, in the data set on Caco-2 cells [2], the “% Activity, Caco-2” value was found to be 98.1 ± 1.7%.

For orientation: IC50 means the concentration that inhibits the measured activity by half. Turning to `Clc1ccc(COC(Cn2ccnc2)c2ccc(Cl)cc2Cl)cc1` (stereo not drawn) [econazole], in the data set with A549 cells (setting [11]), the activity at 20 µM was 36.2 ± 4.9%. Besides, in data set [3] (100 µM), the “% Activity, microsomal NO metabolism” value was determined as 15.3 ± 0.0%. In addition, the IC50 in data set [3] (Caco-2 microsomes) is 10 µM.

`Cc1nc2c([nH]1)c(=O)n(C)c(=O)n2Cc1ccco1` [furafylline]: in the data set on A549 cells (Homo sapiens, A549, 0.25 h, agent 10 μM, 15 min incubation), the activity at 10 µM turned out to be 98.2 ± 3.1%.

Take `CC(=O)N1CCN(c2ccc(OCC3COC(Cn4ccnc4)(c4ccc(Cl)cc4Cl)O3)cc2)CC1` (stereo not drawn) [ketoconazole]: the “Fraction inhibited as percentage of total activity, first (major) phase” value in data set [5] (belongs to the first-phase Ki) is recorded as “(˜75%)”. Also, the “Fraction inhibited as percentage of total activity, second (minor) phase” value in [5] (belongs to the second-phase Ki) is given as “(˜25%)”. Further, the Ki in data set [6] was > 100 µM; in [7] it was 5 µM; in [9] (first (major) phase) it was 0.7 µM; in data set [9] (second (minor) phase), 25 µM. The “% Activity, Caco-2” value in the data set on Caco-2 cells [8] is 22.3 ± 4.1%. In addition, the “% Activity, microsomal NO metabolism” value in data set [3] (100 µM) worked out at 25.9 ± 2.6%. Besides, the IC50 in data set [3] amounted to 10 µM.

For the molecule `Clc1ccc(COC(Cn2ccnc2)c2ccc(Cl)cc2Cl)c(Cl)c1` (stereo not drawn) [miconazole], the activity at 20 µM with A549 cells (setting [11]) was determined as 38.2 ± 5.9%. The “% Activity, microsomal NO metabolism” value in [3] (100 µM) is 17.0 ± 0.0%. In data set [3] (Caco-2 microsomes), the IC50 was determined as 20 µM. The “Effect on NOD activity in S. cerevisiae” value in the data set on S. cerevisiae is on record as “inhibition of NOD activity”. Besides, the “Effect on growth of S. cerevisiae together with NO” value in [10] was “synergistically inhibited growth of S. cerevisiae”.

Regarding `C=CC1=C(C)c2cc3[nH]c(cc4nc(cc5[nH]c(cc1n2)c(C)c5CCC(=O)O)C(CCC(=O)O)=C4C)c(C)c3C=C` [protoporphyrin, Protoporphyrin IX], the “Effect on cytochrome c reduction by microsomal membranes and purified CYPOR” value in data set [4] (20 μM, data not shown) is recorded as “progressive inhibition of cytochrome c reduction”. Further, in data set [3], the “Effect of porphyrins on microsomal NO metabolism” value is given as “inhibited NO metabolism to a significant (p<0.05), albeit lesser, extent”.

`O=c1c(O)c(-c2ccc(O)c(O)c2)oc2cc(O)cc(O)c12` [quercetin]: the “% Activity, microsomal NO metabolism” value in [3] (inhibitor 100 μM) came to 84.1 ± 4.4%.

Turning to `Nc1ccc(S(=O)(=O)Nc2ccnn2-c2ccccc2)cc1` [sulfaphenazole], the “% Activity, Caco-2” value with Caco-2 cells [2] is on record as 97.1 ± 3.0%.

Consider `Cc1c(C)c2c(c(C)c1O)CC[C@@](C)(CCC[C@H](C)CCC[C@H](C)CCCC(C)C)O2` [α-tocopherol], for which, in data set [3] (inhibitor 100 μM), the “% Activity, microsomal NO metabolism” value amounted to 106.9 ± 3.4%.

For “Sn(IV)-protoporphyrin IX [Sn4+-protoporphyrin]”, the “Inhibition of NO metabolic activity, A549” value with A549 cells was “no effect”. For the same molecule, on heme oxygenase, the Ki is < 0.1 µM.

Values taken from patent US20080008771A1, “Nitric Oxide Dioxygenase Inhibitors” (priority 2004, published 2008).
